Earlier results as cited in patent US20070020197A1, “Preparation of pharmaceutical compositions containing nanoparticles” (WARNER-LAMBERT COMPANY LLC, priority 2004, published 2007).

Conditions: mean particle size reduced from 4.15 μm to 0.45 μm

Compound: O=C(NC(=O)c1ccccc1[N+](=O)[O-])Nc1ccc(Oc2ncc(Br)cn2)c(Cl)c1 [HO-221]
- bioavailability change: doubling
